Measurements published in patent US20230085307A1, “PYRIDAZINONE COMPOUND AND HERBICIDE” (NISSAN CHEMICAL CORPORATION, priority 2019, published 2023).

The compounds below were run on blackgrass (assay: Test Example 5: herbicidal effect by foliage application, plastic box (Table 20, symbol J)). Conditions: foliage application, AAH 320 g/ha, evaluated three weeks after application.
Assay type: in vivo, blackgrass (Alopecurus myosuroides)
Summary of the method: (§1)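 Sow seeds spot-wise in sterilized diluvial soil; cover with ~1.5 cm soil. Grow 14 days in greenhouse, 25° C. to 30° C. Spray foliage with emulsion diluted to predetermined amount. Rate effect after 3 weeks.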

Compound	J: blackgrass, herbicidal effect (criteria 0-5)
Cc1nn(C)c(=O)c(-c2c(-c3ccc(OC(F)F)cc3)sc3ccc(F)cc23)c1OC(=O)c1ccco1 [2-287]	5 (Herbicidal rate of 90% or more (almost completely withered))
Cc1nn(C)c(=O)c(-c2c(-c3ccc(OC(F)F)cc3)sc3ccc(F)cc23)c1OC(=O)C1CCCO1 (centres unmarked) [2-289]	4 (Herbicidal rate of 70% or more and less than 90%)

These compounds were tested on windgrass (assay: Test Example 4: herbicidal effect by soil treatment (Table 19, symbol L)). Conditions: amount of applied herbicide 320 g/ha.
Assay type: in vivo, windgrass (Apera spica-venti)
Summary of the method: (§2)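 Applied as a water-diluted emulsion, the compound was sprayed onto soil covering newly sown seeds. Evaluation came three weeks after application, in a greenhouse held at 25° C. to 30° C.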

Compound	herbicidal effect on L: windgrass
Cc1nn(C)c(=O)c(-c2c(-c3ccc(OC(F)F)cc3)sc3ccc(F)cc23)c1OC(=O)c1ccco1 [2-287]	3 (Herbicidal rate of 40% or more and less than 70%)
Cc1nn(C)c(=O)c(-c2c(-c3ccc(OC(F)F)cc3)sc3ccc(F)cc23)c1OC(=O)C1CCCO1 (centres unmarked) [2-289]	4 (Herbicidal rate of 70% or more and less than 90%)

Each compound was assayed on windgrass (assay: Test Example 5: herbicidal effect by foliage application, plastic box (Table 20, symbol L)). Conditions: foliage application, AAH 320 g/ha, evaluated three weeks after application.
Assay type: in vivo, windgrass (Apera spica-venti)
Summary of the method: as §1

Compound	L: windgrass, herbicidal effect (criteria 0-5)
Cc1nn(C)c(=O)c(-c2c(-c3ccc(OC(F)F)cc3)sc3ccc(F)cc23)c1OC(=O)c1ccco1 [2-287]	4 (Herbicidal rate of 70% or more and less than 90%)
Cc1nn(C)c(=O)c(-c2c(-c3ccc(OC(F)F)cc3)sc3ccc(F)cc23)c1OC(=O)C1CCCO1 (centres unmarked) [2-289]	5 (Herbicidal rate of 90% or more (almost completely withered))

What follows are compounds tested on velvetleaf (assay: Test Example 5: herbicidal effect by foliage application, plastic box (Table 20, symbol M)). Conditions: foliage application, AAH 320 g/ha, evaluated three weeks after application.
Assay type: in vivo, velvetleaf (Abutilon theophrasti)
Summary of the method: as §1

Compound	M: velvetleaf, herbicidal effect (criteria 0-5)
Cc1nn(C)c(=O)c(-c2c(-c3ccc(OC(F)F)cc3)sc3ccc(F)cc23)c1OC(=O)c1ccco1 [2-287]	5 (Herbicidal rate of 90% or more (almost completely withered))
Cc1nn(C)c(=O)c(-c2c(-c3ccc(OC(F)F)cc3)sc3ccc(F)cc23)c1OC(=O)C1CCCO1 (centres unmarked) [2-289]	5 (Herbicidal rate of 90% or more (almost completely withered))

The compounds below were run on barnyard grass (assay: Test Example 5: herbicidal effect by foliage application, plastic box (Table 20, symbol H)). Conditions: foliage application, AAH 320 g/ha, evaluated three weeks after application.
Assay type: in vivo, barnyard grass (Echinochloa crus-galli)
Summary of the method: as §1

Compound	H: barnyard grass, herbicidal effect (criteria 0-5)
Cc1nn(C)c(=O)c(-c2c(-c3ccc(OC(F)F)cc3)sc3ccc(F)cc23)c1OC(=O)c1ccco1 [2-287]	5 (Herbicidal rate of 90% or more (almost completely withered))
Cc1nn(C)c(=O)c(-c2c(-c3ccc(OC(F)F)cc3)sc3ccc(F)cc23)c1OC(=O)C1CCCO1 (centres unmarked) [2-289]	5 (Herbicidal rate of 90% or more (almost completely withered))

The compounds below were run on chickweed (assay: Test Example 4: herbicidal effect by soil treatment (Table 19, symbol P)). Conditions: amount of applied herbicide 320 g/ha.
Assay type: in vivo, common chickweed (Stellaria media)
Summary of the method: as §2

Compound	herbicidal effect on P: chickweed
Cc1nn(C)c(=O)c(-c2c(-c3ccc(OC(F)F)cc3)sc3ccc(F)cc23)c1OC(=O)c1ccco1 [2-287]	4 (Herbicidal rate of 70% or more and less than 90%)
Cc1nn(C)c(=O)c(-c2c(-c3ccc(OC(F)F)cc3)sc3ccc(F)cc23)c1OC(=O)C1CCCO1 (centres unmarked) [2-289]	5 (Herbicidal rate of 90% or more (almost completely withered))

The compounds below were run on Japanese bulrush (assay: Test Example 1: herbicidal activity, application before weed generation under submerged conditions (Table 16, symbol B)). Conditions: 320 g/ha applied herbicide.
Assay type: in vivo, Japanese bulrush (Schoenoplectus juncoides)
Summary of the method: (§3)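 Submerged Wagner pots (alluvial soil, 4 cm water) sown with weed seeds and planted with 2.5-leaf rice seedlings; emulsifiable concentrate diluted in water applied to water surface on sowing day. Held in greenhouse at 25-30 °C; injury scored 0-5 by herbicidal rate after three weeks.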

Compound	Herbicidal effect on B: Japanese bulrush (grade 0-5)
Cc1nn(C)c(=O)c(-c2c(-c3ccc(OC(F)F)cc3)sc3ccc(F)cc23)c1OC(=O)c1ccco1 [2-287]	4 (Herbicidal rate of 70% or more and less than 90%)
Cc1nn(C)c(=O)c(-c2c(-c3ccc(OC(F)F)cc3)sc3ccc(F)cc23)c1OC(=O)C1CCCO1 (centres unmarked) [2-289]	3 (Herbicidal rate of 40% or more and less than 70%)

These compounds were tested on wild oat (assay: Test Example 5: herbicidal effect by foliage application, plastic box (Table 20, symbol I)). Conditions: foliage application, AAH 320 g/ha, evaluated three weeks after application.
Assay type: in vivo, wild oat (Avena fatua)
Summary of the method: as §1

Compound	I: wild oat, herbicidal effect (criteria 0-5)
Cc1nn(C)c(=O)c(-c2c(-c3ccc(OC(F)F)cc3)sc3ccc(F)cc23)c1OC(=O)c1ccco1 [2-287]	3 (Herbicidal rate of 40% or more and less than 70%)
Cc1nn(C)c(=O)c(-c2c(-c3ccc(OC(F)F)cc3)sc3ccc(F)cc23)c1OC(=O)C1CCCO1 (centres unmarked) [2-289]	4 (Herbicidal rate of 70% or more and less than 90%)

Each compound was assayed on late watergrass (assay: Test Example 1: herbicidal activity, application before weed generation under submerged conditions (Table 16, symbol A)). Conditions: 320 g/ha applied herbicide.
Assay type: in vivo, late watergrass (Echinochloa oryzicola)
Summary of the method: as §3

Compound	Herbicidal effect on A: late watergrass (grade 0-5)
Cc1nn(C)c(=O)c(-c2c(-c3ccc(OC(F)F)cc3)sc3ccc(F)cc23)c1OC(=O)c1ccco1 [2-287]	5 (Herbicidal rate of 90% or more (almost completely withered))
Cc1nn(C)c(=O)c(-c2c(-c3ccc(OC(F)F)cc3)sc3ccc(F)cc23)c1OC(=O)C1CCCO1 (centres unmarked) [2-289]	4 (Herbicidal rate of 70% or more and less than 90%)

These compounds were tested on redroot pigweed (assay: Test Example 5: herbicidal effect by foliage application, plastic box (Table 20, symbol N)). Conditions: foliage application, AAH 320 g/ha, evaluated three weeks after application.
Assay type: in vivo, redroot pigweed (Amaranthus retroflexus)
Summary of the method: as §1

Compound	N: redroot pigweed, herbicidal effect (criteria 0-5)
Cc1nn(C)c(=O)c(-c2c(-c3ccc(OC(F)F)cc3)sc3ccc(F)cc23)c1OC(=O)c1ccco1 [2-287]	5 (Herbicidal rate of 90% or more (almost completely withered))
Cc1nn(C)c(=O)c(-c2c(-c3ccc(OC(F)F)cc3)sc3ccc(F)cc23)c1OC(=O)C1CCCO1 (centres unmarked) [2-289]	5 (Herbicidal rate of 90% or more (almost completely withered))

These compounds were tested on lambsquarters (assay: Test Example 4: herbicidal effect by soil treatment (Table 19, symbol O)). Conditions: amount of applied herbicide 320 g/ha.
Assay type: in vivo, lambsquarters (Chenopodium album)
Summary of the method: as §2

Compound	herbicidal effect on O: lambsquarters
Cc1nn(C)c(=O)c(-c2c(-c3ccc(OC(F)F)cc3)sc3ccc(F)cc23)c1OC(=O)c1ccco1 [2-287]	5 (Herbicidal rate of 90% or more (almost completely withered))
Cc1nn(C)c(=O)c(-c2c(-c3ccc(OC(F)F)cc3)sc3ccc(F)cc23)c1OC(=O)C1CCCO1 (centres unmarked) [2-289]	5 (Herbicidal rate of 90% or more (almost completely withered))

These compounds were tested on Chinese sprangletop (assay: Test Example 3: herbicidal effect by foliage application, Wagner pot (Table 18, symbol D)). Conditions: amount of applied herbicide 320 g/ha.
Assay type: in vivo, chinese sprangletop (Leptochloa chinensis)
Summary of the method: (§4)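 Plants were sown in alluvial soil held under 0.1–0.5 cm standing water and grown 14 days in a greenhouse at 25–30 °C. An emulsifiable formulation, water-diluted to the set dose, was then sprayed onto the foliage, and effects were scored three weeks later using previously defined criteria.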

Compound	herbicidal effect on D: Chinese sprangletop
Cc1nn(C)c(=O)c(-c2c(-c3ccc(OC(F)F)cc3)sc3ccc(F)cc23)c1OC(=O)c1ccco1 [2-287]	3 (Herbicidal rate of 40% or more and less than 70%)
Cc1nn(C)c(=O)c(-c2c(-c3ccc(OC(F)F)cc3)sc3ccc(F)cc23)c1OC(=O)C1CCCO1 (centres unmarked) [2-289]	3 (Herbicidal rate of 40% or more and less than 70%)

The compounds below were run on chickweed (assay: Test Example 5: herbicidal effect by foliage application, plastic box (Table 20, symbol P)). Conditions: foliage application, AAH 320 g/ha, evaluated three weeks after application.
Assay type: in vivo, common chickweed (Stellaria media)
Summary of the method: as §1

Compound	P: chickweed, herbicidal effect (criteria 0-5)
Cc1nn(C)c(=O)c(-c2c(-c3ccc(OC(F)F)cc3)sc3ccc(F)cc23)c1OC(=O)c1ccco1 [2-287]	5 (Herbicidal rate of 90% or more (almost completely withered))
Cc1nn(C)c(=O)c(-c2c(-c3ccc(OC(F)F)cc3)sc3ccc(F)cc23)c1OC(=O)C1CCCO1 (centres unmarked) [2-289]	5 (Herbicidal rate of 90% or more (almost completely withered))

The compounds below were run on barnyard grass (assay: Test Example 3: herbicidal effect by foliage application, Wagner pot (Table 18, symbol H)). Conditions: amount of applied herbicide 320 g/ha.
Assay type: in vivo, barnyard grass (Echinochloa crus-galli)
Summary of the method: as §4

Compound	herbicidal effect on H: barnyard grass
Cc1nn(C)c(=O)c(-c2c(-c3ccc(OC(F)F)cc3)sc3ccc(F)cc23)c1OC(=O)c1ccco1 [2-287]	5 (Herbicidal rate of 90% or more (almost completely withered))
Cc1nn(C)c(=O)c(-c2c(-c3ccc(OC(F)F)cc3)sc3ccc(F)cc23)c1OC(=O)C1CCCO1 (centres unmarked) [2-289]	5 (Herbicidal rate of 90% or more (almost completely withered))

What follows are compounds tested on southern crabgrass (assay: Test Example 5: herbicidal effect by foliage application, plastic box (Table 20, symbol F)). Conditions: foliage application, AAH 320 g/ha, evaluated three weeks after application.
Assay type: in vivo, southern crabgrass (Digitaria ciliaris)
Summary of the method: as §1

Compound	F: southern crabgrass, herbicidal effect (criteria 0-5)
Cc1nn(C)c(=O)c(-c2c(-c3ccc(OC(F)F)cc3)sc3ccc(F)cc23)c1OC(=O)c1ccco1 [2-287]	5 (Herbicidal rate of 90% or more (almost completely withered))
Cc1nn(C)c(=O)c(-c2c(-c3ccc(OC(F)F)cc3)sc3ccc(F)cc23)c1OC(=O)C1CCCO1 (centres unmarked) [2-289]	3 (Herbicidal rate of 40% or more and less than 70%)

What follows are compounds tested on Italian ryegrass (assay: Test Example 4: herbicidal effect by soil treatment (Table 19, symbol K)). Conditions: amount of applied herbicide 320 g/ha.
Assay type: in vivo, Italian ryegrass (Lolium multiflorum)
Summary of the method: as §2

Compound	herbicidal effect on K: Italian ryegrass
Cc1nn(C)c(=O)c(-c2c(-c3ccc(OC(F)F)cc3)sc3ccc(F)cc23)c1OC(=O)c1ccco1 [2-287]	5 (Herbicidal rate of 90% or more (almost completely withered))
Cc1nn(C)c(=O)c(-c2c(-c3ccc(OC(F)F)cc3)sc3ccc(F)cc23)c1OC(=O)C1CCCO1 (centres unmarked) [2-289]	5 (Herbicidal rate of 90% or more (almost completely withered))

What follows are compounds tested on rice flat sedge (assay: Test Example 3: herbicidal effect by foliage application, Wagner pot (Table 18, symbol E)). Conditions: amount of applied herbicide 320 g/ha.
Assay type: in vivo, rice flat sedge (Cyperus iria)
Summary of the method: as §4

Compound	herbicidal effect on E: rice flat sedge
Cc1nn(C)c(=O)c(-c2c(-c3ccc(OC(F)F)cc3)sc3ccc(F)cc23)c1OC(=O)c1ccco1 [2-287]	5 (Herbicidal rate of 90% or more (almost completely withered))
Cc1nn(C)c(=O)c(-c2c(-c3ccc(OC(F)F)cc3)sc3ccc(F)cc23)c1OC(=O)C1CCCO1 (centres unmarked) [2-289]	5 (Herbicidal rate of 90% or more (almost completely withered))

Each compound was assayed on oval-leafed pondweed (assay: Test Example 1: herbicidal activity, application before weed generation under submerged conditions (Table 16, symbol C)). Conditions: 320 g/ha applied herbicide.
Assay type: in vivo, oval-leafed pondweed (Monochoria vaginalis)
Summary of the method: as §3

Compound	Herbicidal effect on C: oval-leafed pondweed (grade 0-5)
Cc1nn(C)c(=O)c(-c2c(-c3ccc(OC(F)F)cc3)sc3ccc(F)cc23)c1OC(=O)c1ccco1 [2-287]	4 (Herbicidal rate of 70% or more and less than 90%)
Cc1nn(C)c(=O)c(-c2c(-c3ccc(OC(F)F)cc3)sc3ccc(F)cc23)c1OC(=O)C1CCCO1 (centres unmarked) [2-289]	3 (Herbicidal rate of 40% or more and less than 70%)

These compounds were tested on persian speedwell (assay: Test Example 4: herbicidal effect by soil treatment (Table 19, symbol R)). Conditions: amount of applied herbicide 320 g/ha.
Assay type: in vivo, Persian speedwell (Veronica persica)
Summary of the method: as §2

Compound	herbicidal effect on R: persian speedwell
Cc1nn(C)c(=O)c(-c2c(-c3ccc(OC(F)F)cc3)sc3ccc(F)cc23)c1OC(=O)c1ccco1 [2-287]	5 (Herbicidal rate of 90% or more (almost completely withered))
Cc1nn(C)c(=O)c(-c2c(-c3ccc(OC(F)F)cc3)sc3ccc(F)cc23)c1OC(=O)C1CCCO1 (centres unmarked) [2-289]	5 (Herbicidal rate of 90% or more (almost completely withered))
